The text below walks through data of patent publication US8828930B2, “Hepatitis C virus NS3 protease inhibitors” (Merck Sharp & Dohme Corp., priority 2009, dated 2014).

Structures are written as SMILES. Where two headings read alike, the source gives them in different places.

A word on the EC50: it is the concentration that produces a half-maximal response. One may read the Ki as a dissociation constant, usually derived from enzyme kinetics or from competition with a known ligand.

A short description of data set [1]: Plasma and liver concentrations and pharmacokinetics (Rat PK). In kind it is in vivo. Also on record: Rat PK 5 mpk AUC: unit not given here. As to the method: Test compounds were dissolved in a suitable dosing vehicle for i.v. administration (e.g., 20%:60%:20% DMSO:PEG400:H2O) or per oral administration (e.g., 10% POLYSORBATE80:90% H2O or 100% PEG400). Animals were administered (n=2 or 3) using a crossover study design for non-rodents. Plasma samples were collected at time points between 2 minutes and 24 hours, and compound levels were determined by RP-LC/MS/MS. Liver samples were collected post-mortem in rat. Liver samples were weighed, homogenized, and diluted using techniques known to those skilled in the art, and compound levels were determined by RP-LC/MS/MS.
Pharmacokinetic parameters were calculated based on non-compartmental analysis (e.g., using WATSON, WINNOLIN). Predose concentrations that were below the limit of quantitation (BLQ) were assigned a value of 0, Standard pharmacokinetic parameters CLp, Vdss, half-life (only for IV), % F, Cmax, Tmax, AUC0-last, AUC0-infinity were calculated. AUC values were calculated using linear trapezoidal method for ascending concentrations and the log trapezoidal method for descending concentrations.

Data set [2] deals with HCV gt 1b replicon. Briefly: HCV replicon assay, compound inhibitory potency (Replicon EC50). Conditions: Hepatitis C virus, GT1B. In kind it is cell-based. As to the method:
Measurement of inhibition by compounds was performed using the HCV replicon system. Several different replicons encoding different HCV genotypes or mutations were used. In addition, potency measurements were made using different formats of the replicon assay, including different ways of measurements and different plating formats. See Jan M. Vrolijk et al., A replicon-based bioassay for the measurement of interferons in patients with chronic hepatitis C, 110 J. VIROLOGICAL METHODS 201 (2003); Steven S. Carroll et al., Inhibition of Hepatitis C Virus RNA Replication by 2′-Modified Nucleoside Analogs, 278(14) J. BIOLOGICAL CHEMISTRY 11979 (2003). However, the underlying principles are common to all of these determinations, and are outlined below.
Stable neomycin phosphotransferase encoding replicon-harboring cell lines were used, so all cell lines were maintained under G418 selection prior to the assay. In some cases the cell lines encoded a luciferase:NEO FUSION and could be assayed either directly by determination of RNA copy number, or indirectly through measurement of the luciferase activity.
To initiate an assay, replicon cells were plated in the presence of a dilution series of test compound in the absence of G418. Typically, the assays were performed in a 96-well plate format for manual operation, or a 384-well plate in an automated assay. Replicon cells and compound were incubated for 24 to 48 hours, depending on the assay. At the end of the assay, cells are washed free of media and compound and then lysed. For direct quantitation, RNA levels were measured by 32P-probe hybridization and protection, or in a TAQMAN-based assay and normalized to cellular cyclophilin A RNA levels. In some cases, luciferase activity was measured using a conventional luciferase assay. In all cases, EC50 determinations were calculated as a percent of a DMSO control by fitting the data to a four-parameter fit function.
(A replicon is a self-replicating genome or part of one, used to study replication in cells.)

Data set [3] concerns the target NS3/4A protease gt 1b (Hepatitis C virus genotype 1b, UniProt P26663). Briefly: HCV NS3 protease time-resolved fluorescence (TRF) assay, NS3/4A inhibitory activity (Ki), gt 1b. As to conditions: NS3/4A enzyme. In kind it is biochemical. As to the method: (§1) The HCV NS3 protease inhibitory activity of the present compounds may be tested using assays known in the art. One such assay is HCV NS3 protease time-resolved fluorescence (TRF) assay as described below and in WO 2006/102087. Other examples of such assays are described in, for example, WO 2005/046712. HCV NS3 protease inhibitors, such as those described herein have a Ki less than 50 μM, such as less than 10 μM, and less than 100 nM. Ki is determined by an NS3 protease assay. The assay is performed in a final volume of 100 μl in assay buffer containing 50 mM HEPES, pH 7.5, 150 mM NaCl, 15% glycerol, 0.15% TRITON X-100, 10 mM DTT, and 0.1% PEG 8000. NS3 protease is preincubated with various concentrations of inhibitors in DMSO for 30 minutes. The reaction is initiated by adding the TRF peptide substrate (final concentration 100 nM). NS3 mediated hydrolysis of the substrate is quenched after 1 hour at room temperature with 100 μl of 500 mM MES, pH 5.5. Product fluorescence is detected using either a VICTOR V2 or FUSION fluorophotometer (PERKIN ELMER LIFE AND ANALYTICAL SCIENCES) with excitation at 340 nm and emission at 615 nm with a 400 μs delay. Testing concentrations of different enzyme forms are selected to result in a signal to background ratio (SIB) of 10-30. IC50 values are derived using a standard four-parameter fit to the data. Ki values are derived from IC50 values using the following formula, IC50=Ki(1+[S]/KM), Eqn (1), where [S] is the concentration of substrate peptide in the reaction and KM is the Michaelis constant. See Paola Gallinari et al., Modulation of Hepatitis C Virus NS3 Protease and Helicase Activities through the Interaction with NS4A, 38 BIOCHEM. 5620 (1999); Paola Gallinari et al., Multiple Enzymatic Activities Associated with Recombinant NS3 Protein of Hepatitis C Virus, 72(8) J. VIROLOGY 6758 (1998); Mariana Taliani et al., A Continuous Assay of Hepatitis C Virus Protease Based on Resonance Energy Transfer Depsipeptide Substrates, 240 ANAL. BIOCHEM. 60 (1996).
(§2) This NS3 protease assay was performed in a final volume of 100 μl assay buffer containing 50 mM HEPES, pH 7.5, 150 mM NaCl, 15% glycerol, 0.15% TRITON X-100, 10 mM DTT, and 0.1% PEG 8000. NS3/4A protease was pre-incubated with various concentrations of inhibitors in DMSO for 30 minutes. The reaction was initiated by adding the TRF peptide substrate (final concentration 100 nM). NS3 mediated hydrolysis of the substrate was quenched after 1 hour at RT with 100 μl of 500 mM MES, pH 5.5. Product fluorescence was detected using either a V1CTOR V2 or FUSION fluorophotometer (PERKIN ELMER LIFE AND ANALYTICAL SCIENCES) with excitation at 340 nm and emission at 615 nm with a 400 us delay. Testing concentrations of different enzyme forms were selected to result in a signal to background ratio (SIB) of 10-30. IC50 values were derived using a standard four-parameter fit to the data. K, values are derived from IC50 values using the following formula, IC50=Ki(1+[S]/KM), Eqn (1), where [S] is the concentration of substrate peptide in the reaction and KM is the Michaelis constant. See Paola Gallinari et al., Modulation of Hepatitis C Virus NS3 Protease and Helicase Activities through the Interaction with NS4A, 38 BIOCHEM. 5620 (1999); Paola Gallinari et al., Multiple Enzymatic Activities Associated with Recombinant NS3 Protein of Hepatitis C Virus, 72(8) J. VIROLOGY 6758 (1998); Mariana Milani et al., A Continuous Assay of Hepatitis C Virus Protease Based on Resonance Energy Transfer Depsipeptide Substrates, 240 ANAL. BIOCHEM. 60 (1996); Shi-Shan Mao et al., A time-resolved, internally quenched fluorescence assay to characterize inhibition of hepatitis C virus nonstructural protein 3-4A protease at low enzyme concentrations, 373 ANALYTICAL BIOCHEMISTRY 1 (2008). Measuring Compound Inhibitory Potency (Replicon EC50 (nM))

The target of data set [4] is NS3/4A protease gt 3a (Hepatitis C virus genotype 3a, UniProt Q81258). Briefly: HCV NS3 protease time-resolved fluorescence (TRF) assay, NS3/4A inhibitory activity (Ki), gt 3a. In kind it is biochemical. As to conditions: NS3/4A enzyme. As to the method:
as §1, §2

Data set [5] has as its target NS3/4A protease gt 1b A156V (Hepatitis C virus genotype 1b, UniProt P26663, A1182V). Briefly: HCV NS3 protease time-resolved fluorescence (TRF) assay, NS3/4A inhibitory activity (Ki), gt 1b A156V. The format is biochemical. The procedure: as §1, §2

`CC1(S(=O)(=O)NC(=O)[C@@]23C[C@H]2/C=C\CCCCC[C@@H]2NC(=O)O[C@]4(C)C[C@H]4CCCCCc4nc5ccccc5nc4O[C@@H]4C[C@@H](C(=O)N3)N(C4)C2=O)CC1` [Example 11, (3R,20R,22R,26S,32Z,34S,36R,39S)-22-Methyl-N-[(1-methylcyclopropyl)sulfonyl]-24,38,40-trioxo-4,23-dioxa-1,6,13,25,37-pentaazaheptacyclo[24.13.1.1^3,39.0^5,14.0^7,12.0^20,22.0^34,36]hentetraconta-5,7,9,11,13,32-hexaene-36-carboxamide]: the concentration at 4 h in data set [1] (5 mg/kg, 5 mpk, liver concentration at 4 h) was 4 µM. Besides, the “Rat PK 5 mpk AUC” value in data set [1] (area under the plasma concentration/time curve) turned out to be 0.07. Besides, the concentration giving a half-maximal response (EC50) in data set [2] (10% fetal bovine serum, read-out: gt 1b Replicon EC50 10% FBS) was 1 nM; in data set [2] (50% normal human serum, read-out: gt 1b Replicon EC50 50% NHS) it was 5 nM. Besides, the inhibitory constant (Ki) was 0.02 nM in data set [3], 0.37 nM in data set [4] and 0.5 nM in data set [5].
